Results reported in ChEMBL document CHEMBL5678804 (Cancer Cell, 2011).
Activity calls are given as the source filed them. No cut-off for these calls is given here.

Key:
[1] = test system: BaF3; assay: Antileukemic activity against mouse BaF3 cells harbouring BCR-ABL1 T315I mutant non-transduced with 5-FU treated bone marrow xenografted in Balb/c mouse assessed as reduction in pleural effusions at 60 mg/kg, po administered twice daily; type: functional, organism-based
[2] = test system: BaF3; assay: Antileukemic activity against mouse BaF3 cells harbouring BCR-ABL1 T315I mutant non-transduced with 5-FU treated bone marrow xenografted in Balb/c mouse assessed as alteration in B-lymphoid leukemia at 60 mg/kg, po administered twice daily; type: functional, organism-based
[3] = molecular target: Ephrin type-B receptor 4 (Homo sapiens, UniProt P54760); assay: Inhibition of human wild type EPHB4 using PolyEY as substrate preincubated for 2 hrs followed by ATP addition and measured every 2 mins for […] by spectrophotometric analysis
[4] = molecular target: Mitogen-activated protein kinase kinase kinase 20 (Homo sapiens, UniProt Q9NYL2); assay: Inhibition of human wild type ZAK using MBP as substrate preincubated for 2 hrs followed by ATP addition and measured every 2 mins for […] by spectrophotometric analysis
[5] = molecular target: Cyclin-dependent kinase 1 (Homo sapiens, UniProt P06493); assay: Inhibition of human wild type CDK1 using PolyEY as substrate preincubated for 2 hrs followed by ATP addition and measured every 2 mins for […] by spectrophotometric analysis
[6] = molecular target: Focal adhesion kinase 1 (Homo sapiens, UniProt Q05397); assay: Inhibition of human wild type FAK using PolyEY as substrate preincubated for 2 hrs followed by ATP addition and measured every 2 mins for […] by spectrophotometric analysis
[7] = molecular target: Mitogen-activated protein kinase kinase kinase kinase 2 (Homo sapiens, UniProt Q12851); assay: Inhibition of human wild type GCK using Chocktide-PKC(19t o 31) as substrate preincubated for 2 hrs followed by ATP addition and measured every 2 mins for […] by spectrophotometric analysis
[8] = molecular target: Tyrosine-protein kinase JAK1 (Homo sapiens, UniProt P23458); assay: Inhibition of human wild type JAK1 using RBER-IRStide as substrate preincubated for 2 hrs followed by ATP addition and measured every 2 mins for […] by spectrophotometric analysis
[9] = molecular target: Mitogen-activated protein kinase 9 (Homo sapiens, UniProt P45984); assay: Inhibition of human wild type JNK2alpha2 using ATF2 as substrate preincubated for 2 hrs followed by ATP addition and measured every 2 mins for […] by spectrophotometric analysis
[10] = molecular target: Mitogen-activated protein kinase 14 (Homo sapiens, UniProt Q16539); assay: Inhibition of human wild type p38 alpha using ATF2 as substrate preincubated for 2 hrs followed by ATP addition and measured every 2 mins for […] by spectrophotometric analysis
[11] = molecular target: Mitogen-activated protein kinase 11 (Homo sapiens, UniProt Q15759); assay: Inhibition of human wild type p38 beta using ATF2 as substrate preincubated for 2 hrs followed by ATP addition and measured every 2 mins for […] by spectrophotometric analysis
[12] = molecular target: Activated CDC42 kinase 1 (Homo sapiens, UniProt Q07912); assay: Inhibition of human wild type ACK1 using PolyEY as substrate preincubated for 2 hrs followed by ATP addition and measured every 2 mins for […] by spectrophotometric analysis
[13] = molecular target: Activin receptor type-1-like (Homo sapiens, UniProt P37023); assay: Inhibition of human wild type ALK1 using Casein as substrate preincubated for 2 hrs followed by ATP addition and measured every 2 mins for […] by spectrophotometric analysis
[14] = molecular target: Dual specificity protein kinase CLK1 (Homo sapiens, UniProt P49759); assay: Inhibition of human wild type CLK1 using autophos as substrate preincubated for 2 hrs followed by ATP addition and measured every 2 mins for […] by spectrophotometric analysis
[15] = molecular target: Myotonin-protein kinase (Homo sapiens, UniProt Q09013); assay: Inhibition of human wild type DMPK using bio-4xCHKT as substrate preincubated for 2 hrs followed by ATP addition and measured every 2 mins for […] by spectrophotometric analysis
[16] = molecular target: Serine/threonine-protein kinase 17A (Homo sapiens, UniProt Q9UEE5); assay: Inhibition of human wild type DRAK1 using RB-CTF as substrate preincubated for 2 hrs followed by ATP addition and measured every 2 mins for […] by spectrophotometric analysis
[17] = molecular target: Insulin receptor (Homo sapiens, UniProt P06213); assay: Inhibition of human wild type IR using Poly(Ala,Glu,Lys,Tyr)6:2:5:1 as substrate preincubated for 2 hrs followed by ATP addition and measured every 2 mins for […] by spectrophotometric analysis
[18] = molecular target: Mitogen-activated protein kinase 10 (Homo sapiens, UniProt P53779); assay: Inhibition of human wild type JNK3 using ATF2 as substrate preincubated for 2 hrs followed by ATP addition and measured every 2 mins for […] by spectrophotometric analysis
[19] = molecular target: Serine/threonine-protein kinase MARK1 (Homo sapiens, UniProt Q9P0L2); assay: Inhibition of human wild type MARK1 using RBER-CHKtide as substrate preincubated for 2 hrs followed by ATP addition and measured every 2 mins for […] by spectrophotometric analysis
[20] = molecular target: Maternal embryonic leucine zipper kinase (Homo sapiens, UniProt Q14680); assay: Inhibition of human wild type MELK using RBER-CHKtide as substrate preincubated for 2 hrs followed by ATP addition and measured every 2 mins for […] by spectrophotometric analysis
[21] = molecular target: Dual specificity mitogen-activated protein kinase kinase 6 (Homo sapiens, UniProt P52564); assay: Inhibition of human wild type MKK6 using p38-alpha KA as substrate preincubated for 2 hrs followed by ATP addition and measured every 2 mins for […] by spectrophotometric analysis
[22] = molecular target: Mitogen-activated protein kinase 12 (Homo sapiens, UniProt P53778); assay: Inhibition of human wild type p38 gamma using RBER-IRStide as substrate preincubated for 2 hrs followed by ATP addition and measured every 2 mins for […] by spectrophotometric analysis
[23] = molecular target: Mitogen-activated protein kinase 13 (Homo sapiens, UniProt O15264); assay: Inhibition of human wild type p38 delta using RBER-CHKtide as substrate preincubated for 2 hrs followed by ATP addition and measured every 2 mins for […] by spectrophotometric analysis
[24] = molecular target: Protein kinase C alpha type (Homo sapiens, UniProt P17252); assay: Inhibition of human wild type PKC alpha using 3xChocktide-PKC(19to 31) as substrate preincubated for 2 hrs followed by ATP addition and measured every 2 mins for […] by spectrophotometric analysis
[25] = test system: BaF3; assay: Antitumor activity against mouse BaF3 cells harbouring BCR-ABL1 T315I mutant xenografted in Balb/c mouse model assessed as prolongation of animal survival at 100 mg/kg, po administered once daily for 21 days; type: functional, organism-based; settings: time 21.0 day
[26] = Toxicity in Balb/c mouse assessed as hindlimb paralysis; settings: in vivo
[27] = molecular target: Crk-like protein (Homo sapiens) (UniProt P46109); assay: Inhibition of CrkL phosphorylation in Ph+ B-ALL patient with […] mutation derived human Leukemia cell at 50 to 1000 nM by immunoblot analysis; type: cell-based; settings: dose 50-1000 nM
[28] = test system: Leukemia cell; assay: Cytotoxicity against human Leukemia cell assessed as reduction in cell viability measured after 72 hrs by MTT assay; type: functional, cell-based
[29] = molecular target: Tyrosine-protein kinase ABL1 (Homo sapiens, UniProt P00519); settings: Sf9, time 2.0 hrs
[30] = test system: Tyrosine-protein kinase ABL1 (Homo sapiens), P00519 [T315I]; settings: time 2.0 hrs

Sequence of Mitogen-activated protein kinase 14 (Q16539 whole entry): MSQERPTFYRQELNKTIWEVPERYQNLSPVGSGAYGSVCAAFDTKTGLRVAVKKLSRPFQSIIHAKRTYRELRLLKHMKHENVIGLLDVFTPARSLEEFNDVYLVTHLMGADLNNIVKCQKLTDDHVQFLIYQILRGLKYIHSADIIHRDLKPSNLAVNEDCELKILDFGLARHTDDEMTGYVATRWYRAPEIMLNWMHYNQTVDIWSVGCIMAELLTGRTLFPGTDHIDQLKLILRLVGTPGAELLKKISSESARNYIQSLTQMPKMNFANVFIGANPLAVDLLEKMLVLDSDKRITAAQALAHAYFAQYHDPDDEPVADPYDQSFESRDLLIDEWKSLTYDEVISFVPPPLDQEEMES
Sequence of Activated CDC42 kinase 1 (Q07912 whole entry): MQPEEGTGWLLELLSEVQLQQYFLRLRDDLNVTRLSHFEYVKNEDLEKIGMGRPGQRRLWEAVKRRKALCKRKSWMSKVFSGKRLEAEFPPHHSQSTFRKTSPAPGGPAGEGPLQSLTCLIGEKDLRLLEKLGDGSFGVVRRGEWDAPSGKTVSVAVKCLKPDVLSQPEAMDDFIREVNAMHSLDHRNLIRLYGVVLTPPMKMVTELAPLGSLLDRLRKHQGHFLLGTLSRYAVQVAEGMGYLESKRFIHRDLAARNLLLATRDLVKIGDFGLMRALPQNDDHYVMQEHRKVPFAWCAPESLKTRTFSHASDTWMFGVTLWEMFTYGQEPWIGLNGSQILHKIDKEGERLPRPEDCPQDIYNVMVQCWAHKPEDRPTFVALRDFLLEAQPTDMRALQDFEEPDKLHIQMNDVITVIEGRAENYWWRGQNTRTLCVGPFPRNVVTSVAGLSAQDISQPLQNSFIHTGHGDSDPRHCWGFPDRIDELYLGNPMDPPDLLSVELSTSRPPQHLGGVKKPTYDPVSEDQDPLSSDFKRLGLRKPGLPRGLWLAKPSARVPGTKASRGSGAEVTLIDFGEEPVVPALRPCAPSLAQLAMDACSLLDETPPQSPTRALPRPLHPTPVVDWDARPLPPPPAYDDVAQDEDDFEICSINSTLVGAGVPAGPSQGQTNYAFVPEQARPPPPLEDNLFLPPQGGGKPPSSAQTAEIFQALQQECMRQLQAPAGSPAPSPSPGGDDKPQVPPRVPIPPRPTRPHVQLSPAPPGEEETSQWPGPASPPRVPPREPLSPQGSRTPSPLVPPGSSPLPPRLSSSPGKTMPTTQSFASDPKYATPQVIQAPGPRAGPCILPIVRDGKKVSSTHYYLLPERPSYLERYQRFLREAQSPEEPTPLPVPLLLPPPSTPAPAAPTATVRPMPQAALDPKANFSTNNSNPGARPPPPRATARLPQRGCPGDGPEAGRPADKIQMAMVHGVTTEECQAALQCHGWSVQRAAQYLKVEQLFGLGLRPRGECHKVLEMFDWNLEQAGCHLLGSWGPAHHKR
Sequence of Dual specificity protein kinase CLK1 (P49759 whole entry): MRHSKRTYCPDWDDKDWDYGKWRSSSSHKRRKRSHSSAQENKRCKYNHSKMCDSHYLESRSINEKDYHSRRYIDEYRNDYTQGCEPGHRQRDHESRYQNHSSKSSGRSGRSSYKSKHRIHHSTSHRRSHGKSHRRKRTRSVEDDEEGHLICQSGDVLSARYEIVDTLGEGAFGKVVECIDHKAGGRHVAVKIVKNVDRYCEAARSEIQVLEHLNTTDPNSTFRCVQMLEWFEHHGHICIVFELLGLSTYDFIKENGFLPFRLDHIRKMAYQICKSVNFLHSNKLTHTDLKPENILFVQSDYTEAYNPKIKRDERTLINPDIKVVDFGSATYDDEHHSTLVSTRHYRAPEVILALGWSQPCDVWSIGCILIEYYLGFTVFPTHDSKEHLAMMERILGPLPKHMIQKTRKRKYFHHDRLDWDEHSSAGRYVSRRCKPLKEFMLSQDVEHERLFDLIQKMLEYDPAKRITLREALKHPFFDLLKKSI
Sequence of Myotonin-protein kinase (Q09013 whole entry): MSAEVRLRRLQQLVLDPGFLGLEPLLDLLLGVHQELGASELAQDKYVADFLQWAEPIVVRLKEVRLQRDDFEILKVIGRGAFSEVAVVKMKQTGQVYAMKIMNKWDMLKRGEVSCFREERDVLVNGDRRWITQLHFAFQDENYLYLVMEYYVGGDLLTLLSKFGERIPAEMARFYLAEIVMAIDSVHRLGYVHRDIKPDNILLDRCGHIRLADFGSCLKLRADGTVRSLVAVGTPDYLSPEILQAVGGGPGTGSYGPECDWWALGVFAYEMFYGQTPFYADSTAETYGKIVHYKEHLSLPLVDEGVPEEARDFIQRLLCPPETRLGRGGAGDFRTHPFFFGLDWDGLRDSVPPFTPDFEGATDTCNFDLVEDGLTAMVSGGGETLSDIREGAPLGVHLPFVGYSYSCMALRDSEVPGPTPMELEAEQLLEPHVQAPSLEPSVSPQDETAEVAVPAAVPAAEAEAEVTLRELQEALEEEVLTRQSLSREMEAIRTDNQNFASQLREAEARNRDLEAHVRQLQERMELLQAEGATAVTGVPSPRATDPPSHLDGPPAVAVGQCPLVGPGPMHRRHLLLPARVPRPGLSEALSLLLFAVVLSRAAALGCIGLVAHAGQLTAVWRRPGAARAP
Sequence of Mitogen-activated protein kinase 11 (Q15759 whole entry): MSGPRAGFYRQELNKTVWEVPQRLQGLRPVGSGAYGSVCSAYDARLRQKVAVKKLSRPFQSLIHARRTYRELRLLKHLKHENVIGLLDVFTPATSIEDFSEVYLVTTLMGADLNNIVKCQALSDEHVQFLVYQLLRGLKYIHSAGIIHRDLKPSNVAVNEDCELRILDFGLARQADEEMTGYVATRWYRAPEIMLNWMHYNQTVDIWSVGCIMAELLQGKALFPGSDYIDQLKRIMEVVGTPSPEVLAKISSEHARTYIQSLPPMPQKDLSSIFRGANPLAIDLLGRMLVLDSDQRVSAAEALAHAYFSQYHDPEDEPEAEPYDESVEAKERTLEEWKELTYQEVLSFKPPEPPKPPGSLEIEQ
Sequence of Focal adhesion kinase 1 (Q05397 whole entry): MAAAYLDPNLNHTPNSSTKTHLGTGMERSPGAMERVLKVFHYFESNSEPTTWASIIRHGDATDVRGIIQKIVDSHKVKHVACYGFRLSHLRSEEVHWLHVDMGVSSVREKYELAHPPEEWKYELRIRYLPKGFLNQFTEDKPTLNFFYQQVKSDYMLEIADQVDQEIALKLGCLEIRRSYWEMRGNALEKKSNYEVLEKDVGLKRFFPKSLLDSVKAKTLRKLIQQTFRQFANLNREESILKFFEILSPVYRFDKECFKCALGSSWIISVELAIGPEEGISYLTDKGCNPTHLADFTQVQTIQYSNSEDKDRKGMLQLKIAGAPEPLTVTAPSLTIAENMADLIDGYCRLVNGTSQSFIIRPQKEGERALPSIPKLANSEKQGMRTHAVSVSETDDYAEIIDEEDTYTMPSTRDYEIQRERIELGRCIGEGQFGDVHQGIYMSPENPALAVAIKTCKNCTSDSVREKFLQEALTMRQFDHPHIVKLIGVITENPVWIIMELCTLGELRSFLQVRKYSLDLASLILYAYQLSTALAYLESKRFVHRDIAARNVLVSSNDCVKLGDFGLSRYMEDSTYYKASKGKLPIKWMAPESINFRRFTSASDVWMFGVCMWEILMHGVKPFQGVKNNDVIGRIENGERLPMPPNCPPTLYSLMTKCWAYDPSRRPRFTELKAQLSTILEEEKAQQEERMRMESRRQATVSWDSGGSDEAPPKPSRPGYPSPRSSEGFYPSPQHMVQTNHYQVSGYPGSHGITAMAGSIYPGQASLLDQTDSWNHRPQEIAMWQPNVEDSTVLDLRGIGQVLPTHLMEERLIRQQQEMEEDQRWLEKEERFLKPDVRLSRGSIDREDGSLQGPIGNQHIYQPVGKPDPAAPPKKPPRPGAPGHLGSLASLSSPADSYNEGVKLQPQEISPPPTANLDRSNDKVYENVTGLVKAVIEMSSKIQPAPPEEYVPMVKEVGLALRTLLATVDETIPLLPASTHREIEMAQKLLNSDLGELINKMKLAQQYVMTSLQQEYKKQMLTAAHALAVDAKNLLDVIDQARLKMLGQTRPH
Sequence of Ephrin type-B receptor 4 (P54760 whole entry): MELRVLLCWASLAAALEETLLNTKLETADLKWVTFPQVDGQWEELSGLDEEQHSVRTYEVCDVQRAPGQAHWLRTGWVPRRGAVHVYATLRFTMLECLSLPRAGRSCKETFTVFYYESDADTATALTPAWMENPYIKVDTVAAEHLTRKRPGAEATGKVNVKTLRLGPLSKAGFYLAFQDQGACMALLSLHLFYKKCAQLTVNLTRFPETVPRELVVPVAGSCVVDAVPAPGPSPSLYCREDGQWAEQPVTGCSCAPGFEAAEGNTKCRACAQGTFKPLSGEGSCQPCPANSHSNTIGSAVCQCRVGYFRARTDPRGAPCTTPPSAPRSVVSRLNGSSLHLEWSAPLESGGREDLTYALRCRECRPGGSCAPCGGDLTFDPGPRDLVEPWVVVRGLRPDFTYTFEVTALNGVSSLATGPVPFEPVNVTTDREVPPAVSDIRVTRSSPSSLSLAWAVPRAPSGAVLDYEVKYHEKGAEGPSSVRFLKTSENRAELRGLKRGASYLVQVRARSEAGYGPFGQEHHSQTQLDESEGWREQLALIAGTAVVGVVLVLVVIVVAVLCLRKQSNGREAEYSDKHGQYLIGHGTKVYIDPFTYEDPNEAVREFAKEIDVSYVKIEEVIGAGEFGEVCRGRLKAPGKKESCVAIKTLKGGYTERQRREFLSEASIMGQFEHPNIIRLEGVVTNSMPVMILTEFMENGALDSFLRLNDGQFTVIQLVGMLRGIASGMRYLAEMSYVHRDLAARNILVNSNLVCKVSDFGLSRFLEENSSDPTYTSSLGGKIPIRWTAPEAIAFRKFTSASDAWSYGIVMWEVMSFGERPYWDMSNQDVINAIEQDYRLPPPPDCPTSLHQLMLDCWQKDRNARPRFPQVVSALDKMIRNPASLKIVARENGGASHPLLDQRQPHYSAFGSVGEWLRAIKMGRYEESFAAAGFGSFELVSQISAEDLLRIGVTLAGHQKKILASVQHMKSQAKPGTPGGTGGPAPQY

CNC(=O)c1cc(Oc2ccc(NC(=O)Nc3cc(C(C)(C)C)nn3-c3ccc4ncccc4c3)c(F)c2)ccn1 [REBASTINIB]
Activity [1]: Active | Activity [2]: Active | IC50 [3]: 64 nM | IC50 [4]: 90 nM | IC50 [5]: 290 nM | IC50 [6]: 250 nM | IC50 [7]: 230 nM | IC50 [8]: 850 nM | IC50 [9]: 240 nM | IC50 [10]: 110 nM | IC50 [11]: 790 nM | IC50 [12]: > 1000 nM | IC50 [13]: > 1000 nM | IC50 [14]: > 1000 nM | IC50 [15]: > 1000 nM | IC50 [16]: > 1000 nM | IC50 [17]: > 1000 nM | IC50 [18]: > 1000 nM | IC50 [19]: > 1000 nM | IC50 [20]: > 1000 nM | IC50 [21]: > 1000 nM | IC50 [22]: > 1000 nM | IC50 [23]: > 1000 nM | IC50 [24]: > 1000 nM | Activity [25]: Active | Activity [26]: Toxic | inhibition [27]: Active | Activity [28]: Active | Kdiss [29]: 3.33e-05 s⁻¹ | Kdiss [30]: 1.67e-05 s⁻¹
